Holding throughout (assay): ≥ marks a high value that may be exact or a test limit, other limits are often not marked, values filed in µg/mL are converted to µM
The subject of experiment [1] is Salmonella enterica subsp. enterica serovar Typhimurium C77-31.
Experiment [2] has as its system Salmonella enterica subsp. enterica serovar Pullorum ATCC 7913.
Experiment [3] concerns Candida parapsilosis CGMCC 2.3989.
The test system of experiment [4] is Escherichia coli K99.
Experiment [5] relates to Escherichia coli 078.
Experiment [6] concerns Escherichia coli K88.
Experiment [7] has as its system Candida tropicalis CGMCC 2.1975.
Experiment [8] deals with Salmonella enterica subsp. enterica serovar Typhimurium ATCC 14028.
Experiment [9] concerns Staphylococcus epidermidis ATCC 12228.
The test system of experiment [10] is Staphylococcus aureus ATCC 25923.
In experiment [11] the test system is Escherichia coli UB1005.
Experiment [12] concerns Pseudomonas aeruginosa ATCC 27853.
In experiment [13] the test system is Staphylococcus aureus ATCC 43300.
Experiment [14] deals with Candida albicans CGMCC 2.2086.
For experiment [15], the system named is Salmonella enterica subsp. enterica serovar Typhimurium ATCC 14028s.
In experiment [16] the test system is Pseudomonas aeruginosa Z61.
Experiment [17] relates to Escherichia coli DC2.
Experiment [18] relates to Salmonella enterica serovar typhimurium MS7953s.
In experiment [19] the test system is Pseudomonas aeruginosa K799.
Experiment [20] concerns Aeromonas salmonicida 99-1.
Experiment [21] relates to Staphylococcus aureus C623.
Experiment [22] concerns Aeromonas salmonicida 97-4.
In experiment [23] the test system is Escherichia coli CGSC 4908.
Experiment [24] has as its system Candida albicans C627.
Experiment [25] concerns Staphylococcus epidermidis C621.
Experiment [26] relates to Escherichia coli INV-a.
Experiment [27] deals with Lactococcus lactis MG1363.
Experiment [28] has as its system Escherichia coli JW0368 ΔsbmA.
Experiment [29] concerns Salmonella enterica subsp. enterica serovar Enteritidis MH91989.
The test system of experiment [30] is Escherichia coli.
Experiment [31] concerns Escherichia coli JW0013.
Experiment [32] has as its system Escherichia coli JJ2489.
Experiment [33] concerns Salmonella enterica subsp. enterica serovar Infantis.
For experiment [34], the system named is Salmonella enterica subsp. enterica serovar Newport.
Experiment [35] relates to Escherichia coli MC1041.
The test system of experiment [36] is Salmonella enterica serovar Tennessee.
The subject of experiment [37] is Escherichia coli J2210.
In experiment [38] the test system is Salmonella typhimurium SL1344.
Experiment [39] relates to Escherichia coli JW2778 ΔygdD.
Experiment [40] concerns Escherichia coli MC1061.
Experiment [41] relates to Escherichia coli O157:H7.
Experiment [42] concerns Escherichia coli JJ2487.

Our source for the MIC values is DBAASP.

Values after ≈ are worked out from the molar mass of the structure shown. Values joined by “and” are separate entries in the source; they are usually repeats but may differ in a detail not shown here. Identical values can stand only once. Bounds are passed on as bounds.

On to `CC[C@H](C)[C@H](NC(=O)[C@H](CCCN=C(N)N)NC(=O)[C@H](C)NC(=O)[C@H](C)N)C(=O)N[C@H](C(=O)N[C@@H](CC(C)C)C(=O)N[C@@H](CCCN=C(N)N)C(=O)NCC(=O)N[C@@H](CCCN=C(N)N)C(=O)N[C@@H](Cc1ccccc1)C(=O)N[C@@H](CCCN=C(N)N)C(N)=O)[C@@H](C)CC` [AARIILRGRFR], for which the MIC in [1] was 8 µM (≈ 10.6 µg/mL); in [2], 4 µM (≈ 5.31 µg/mL); in [3] it was at least 64 µM; in experiment [4], 2 µM (≈ 2.66 µg/mL); in experiment [5], 4 µM (≈ 5.31 µg/mL); in experiment [6] it was 2 µM (≈ 2.66 µg/mL). Further, the MIC in experiment [7] came to 16 µM (≈ 21.2 µg/mL); in experiment [8] it was 4 µM (≈ 5.31 µg/mL); in experiment [9] it was 8 µM (≈ 10.6 µg/mL); in experiment [10], 16 µM (≈ 21.2 µg/mL); in [11] it was 4 µM (≈ 5.31 µg/mL); in [12], 16 µM (≈ 21.2 µg/mL). The MIC is 8 µM (≈ 10.6 µg/mL) in experiment [13] and at least 128 µM in [14].
For `CC[C@H](C)[C@H](NC(=O)CNC(=O)[C@H](Cc1cnc[nH]1)NC(=O)[C@H](CC(C)C)NC(=O)CNC(=O)[C@H](CC(C)C)NC(=O)[C@H](CCCCN)NC(=O)[C@H](Cc1ccccc1)NC(=O)[C@H](CC(C)C)NC(=O)[C@H](CCCCN)NC(=O)CNC(=O)[C@H](Cc1c[nH]c2ccccc12)NC(=O)[C@H](Cc1ccccc1)NC(=O)CN)C(=O)NCC(=O)N[C@@H](CC(C)C)C(=O)N[C@@H](CC(C)C)C(=O)N[C@@H](Cc1cnc[nH]1)C(=O)N[C@@H](CC(C)C)C(=O)N[C@@H](Cc1cnc[nH]1)C(=O)N[C@@H](CC(C)C)C(C)=O` [GFWGKLFKLGLHGIGLLHLHL], the minimum inhibitory concentration (MIC) in [15] is 6.79 µM (≈ 16 µg/mL); in experiment [16] it was 1.7 µM (≈ 4 µg/mL); in [17], 3.39 µM (≈ 7.99 µg/mL); in experiment [18] it was 1.7 µM (≈ 4 µg/mL); in [19], 3.39 µM (≈ 7.99 µg/mL); in [20], 3.39 µM (≈ 7.99 µg/mL). Also, the MIC was 3.39 µM (≈ 7.99 µg/mL) in [11]; 1.7 µM (≈ 4 µg/mL) in experiment [21]; 6.79 µM (≈ 16 µg/mL) in experiment [22]; 3.39 µM (≈ 7.99 µg/mL) in experiment [23]; 6.79 µM (≈ 16 µg/mL) in [24]; 1.7 µM (≈ 4 µg/mL) in experiment [25].
`CC[C@H](C)[C@H](N)C(=O)N[C@@H](CC(N)=O)C(=O)N[C@@H](Cc1c[nH]c2ccccc12)C(=O)N[C@@H](CCCCN)C(=O)NCC(=O)N[C@H](C(=O)N[C@@H](C)C(=O)N[C@@H](CC(C)C)C(=O)N[C@@H](CCSC)C(=O)N[C@@H](C)C(=O)N[C@@H](CCCCN)C(=O)N[C@@H](CCCCN)C(=O)N[C@@H](CC(C)C)C(=O)N[C@@H](CC(C)C)C(N)=O)[C@@H](C)CC` [INWKGIALMAKKLL]: the minimum inhibitory concentration (MIC) was 7 µM (≈ 11.2 µg/mL) in experiment [26] and 2.5 µM (≈ 4 µg/mL) in experiment [27].
Consider `CC[C@H](C)[C@H](NC(=O)[C@@H]1CCCN1C(=O)[C@H](CCCCN)NC(=O)[C@@H]1CCCN1C(=O)[C@@H]1CCCN1C(=O)[C@@H](NC(=O)[C@@H]1CCCN1C(=O)[C@H](CCCN=C(N)N)NC(=O)[C@@H]1CCCN1C(=O)[C@H](CCCN=C(N)N)NC(=O)[C@H](Cc1ccc(O)cc1)NC(=O)[C@H](CO)NC(=O)CNC(=O)[C@H](CCCCN)NC(=O)[C@H](CC(=O)O)NC(=O)[C@@H](N)C(C)C)[C@@H](C)O)C(=O)N[C@@H](Cc1ccc(O)cc1)C(=O)N[C@@H](CC(N)=O)C(=O)N[C@@H](CCCN=C(N)N)C(=O)N[C@@H](CC(N)=O)C(=O)O` [VDKGSYRPRPTPPKPIYNRN], for which the minimum inhibitory concentration (MIC) in experiment [28] was 0.3 µM (≈ 0.707 µg/mL); in experiment [29], 0.15 µM (≈ 0.353 µg/mL); in [30], 0.15 µM and 0.208 µM; in experiment [31], 0.037 µM (≈ 0.0872 µg/mL); in experiment [32], 0.078 µM (≈ 0.184 µg/mL); in experiment [33], 0.098 µM (≈ 0.231 µg/mL). The minimal inhibitory concentration (MIC) in experiment [34] is 0.037 µM (≈ 0.0872 µg/mL); in [35], 0.075 µM (≈ 0.177 µg/mL); in experiment [36], 0.075 µM (≈ 0.177 µg/mL); in [37], 0.075 µM (≈ 0.177 µg/mL); in [38], 0.075 µM (≈ 0.177 µg/mL); in experiment [39], 0.104 µM (≈ 0.245 µg/mL).
For `CC[C@H](C)[C@H](NC(=O)[C@H](CCCN=C(N)N)NC(=O)[C@H](CCCN=C(N)N)NC(=O)[C@@H]1CCCN1C(=O)[C@@H]1CCCN1C(=O)[C@H](CCCN=C(N)N)NC(=O)[C@@H]1CCCN1C(=O)[C@H](CCCN=C(N)N)NC(=O)[C@@H]1CCCN1C(=O)[C@H](CCCN=C(N)N)NC(=O)[C@H](Cc1ccc(O)cc1)NC(=O)[C@@H]1CCCN1C(=O)[C@@H]1CCCN1C(=O)[C@H](CCCCN)NC(=O)[C@H](CC(=O)O)NC(=O)[C@@H](N)C(C)C)C(=O)N[C@@H](Cc1ccc(O)cc1)C(=O)N[C@@H](CC(N)=O)C(=O)N[C@@H](CCCN=C(N)N)C(N)=O` [VDKPPYRPRPRPPRRIYNR], the MIC was 0.246 µM (≈ 0.6 µg/mL) in experiment [29]; 0.0822 µM (≈ 0.2 µg/mL) in experiment [40]; 0.173 µM (≈ 0.42 µg/mL) in experiment [31]; 0.16 µM (≈ 0.39 µg/mL) in experiment [37]; 0.986 µM (≈ 2.4 µg/mL) in experiment [41]; 0.173 µM (≈ 0.42 µg/mL) in experiment [38]. The MIC in experiment [42] came out at 0.16 µM (≈ 0.39 µg/mL).

By MIC is commonly meant the least concentration at which growth counts as inhibited.
